15 molecules from patent publication US20240409585A1, “MACROCYCLIC IMMUNOMODULATORS” (priority 2021, published 2024) can be followed below.

Bridge positions count the residues as written; N and C are the ends. Square brackets hold non-standard residues; d marks the D form. Peptide text beside a SMILES is read from it. * marks the point of attachment. ξ: configuration not given here. Tyr(3-NO2) = N[C@@H](Cc1ccc(O)c([N+](=O)[O-])c1)C(=O)O; Ala(morpholin-4-yl) = N[C@@H](CN1CCOCC1)C(=O)O; Phe(4-COOH) = N[C@@H](Cc1ccc(C(=O)O)cc1)C(=O)O; Bip = N[C@@H](Cc1ccc(-c2ccccc2)cc1)C(=O)O; dPhe(4-NH2) = Nc1ccc(C[C@@H](N)C(=O)O)cc1; Lys(Me3) = C[N+](C)(C)CCCC[C@H](N)C(=O)O; Phe(3-Me) = Cc1cccc(C[C@H](N)C(=O)O)c1; Bta = N[C@@H](Cc1csc2ccccc12)C(=O)O; Val(3-OH) = CC(C)(O)[C@H](N)C(=O)O; 4Pal = N[C@@H](Cc1ccncc1)C(=O)O; d3Pal = N[C@H](Cc1cccnc1)C(=O)O; Cha = N[C@@H](CC1CCCCC1)C(=O)O; Ile(3ξ) = CCC(C)[C@H](N)C(=O)O; Carboxymethyl = O=C(O)C*; NMeA = CN[C@@H](C)C(=O)O; Nle = CCCC[C@H](N)C(=O)O; Orn = NCCC[C@H](N)C(=O)O; Pra = C#CC[C@H](N)C(=O)O; Dab = NCC[C@H](N)C(=O)O; Dap = NC[C@H](N)C(=O)O; ξDab = NCCC(N)C(=O)O; ξC = NC(CS)C(=O)O

The target in this experiment is T1, PE-labeled human PD-L1-Ig binding to Jurkat cell line over-expressing human PD-1 (Jurkat-PD-1) (Homo sapiens, UniProt Q15116).
T1 construct: expressed in transfected cells; host or cells: Jurkat
T1 sequence (Q15116 25-288): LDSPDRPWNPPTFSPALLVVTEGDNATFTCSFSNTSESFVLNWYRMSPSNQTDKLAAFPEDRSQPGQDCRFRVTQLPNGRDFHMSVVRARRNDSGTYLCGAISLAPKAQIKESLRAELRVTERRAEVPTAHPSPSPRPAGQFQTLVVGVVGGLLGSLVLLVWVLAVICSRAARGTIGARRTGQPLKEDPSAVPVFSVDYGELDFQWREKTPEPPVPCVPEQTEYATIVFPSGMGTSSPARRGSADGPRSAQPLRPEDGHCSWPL
The experiment can be described thus: Jurkat-PD-1 Cell Binding High-Content Screening Assay (CBA): Method 1. Particulars: Jurkat-hPD-1 cells, PE-labeled PD-L1-Ig 20 nM final; read-out: Jurkat HPDL1 PD1 IC50 (uM) (Method 1).
With `C#CC[C@H](NC(=O)[C@@H](C)NC(=O)[C@@H]1CSCC(=O)N[C@@H](Cc2c[nH]cn2)C(=O)N[C@@H](Cc2ccc(OCC(=O)O)cc2)C(=O)N[C@@H](CC(=O)O)C(=O)N[C@@H](Cc2c[nH]c3ccccc23)C(=O)N[C@@H](C(C)C)C(=O)N[C@@H](Cc2ccc(-c3ccccc3)cc2)C(=O)N[C@@H](C(C)C)C(=O)N(C)[C@@H](C)C(=O)N[C@H](CC(C)C)C(=O)N[C@@H](CCN)C(=O)N[C@@H](CC2CCCCC2)C(=O)N[C@@H](C(C)(C)O)C(=O)N[C@@H](CO)C(=O)N1)C(=O)O` [Compound 1943] ({CH2CO}-HY(Carboxymethyl)DWV[Bip]V[NMeA][dL][Dab][Cha][Val(3-OH)]SC[dA][Pra]-OH; thioether N-14), the IC50 is 0.01 µM.
In the case of `CC(C)C[C@@H]1NC(=O)[C@H](Cc2c[nH]c3ccccc23)NC(=O)[C@H](CC(=O)O)NC(=O)[C@H](Cc2ccc(OCC(=O)O)cc2)NC(=O)[C@H](Cc2ccc(OCC(=O)O)cc2)NC(=O)CSC[C@@H](C(=O)N[C@@H](C)C(N)=O)NC(=O)[C@H](CO)NC(=O)[C@H](C(C)C)NC(=O)[C@H](CC(C)C)NC(=O)[C@H](CCN)NC(=O)[C@@H](CC(C)C)NC(=O)[C@H](C)N(C)C(=O)[C@H](C(C)C)NC(=O)[C@H](Cc2ccc(-c3ccccc3)cc2)NC1=O` [Compound 2123] ({CH2CO}-Y(Carboxymethyl)Y(Carboxymethyl)DWL[Bip]V[NMeA][dL][Dab]LVSCA-NH2; thioether N-14), the 50% inhibitory concentration (IC50) amounted to 0.02 µM.
Turning to `CC(C)C[C@@H]1NC(=O)[C@H](Cc2c[nH]c3ccccc23)NC(=O)[C@H](CC(=O)O)NC(=O)[C@H](Cc2ccc(C(=O)O)cc2)NC(=O)[C@H](Cc2ccccc2)NC(=O)CSC[C@@H](C(=O)N[C@@H](C)C(N)=O)NC(=O)[C@H](CO)NC(=O)[C@H](C(C)C)NC(=O)[C@H](CC(C)C)NC(=O)[C@H](CCCCN)NC(=O)[C@@H](C)NC(=O)[C@H](C)N(C)C(=O)[C@H](CCC(=O)O)NC(=O)[C@H](Cc2ccc(-c3ccccc3)cc2)NC1=O` [Compound 1746] ({CH2CO}-F[Phe(4-COOH)]DWL[Bip]E[NMeA][dA]KLVSCA-NH2; thioether N-14), the IC50 amounted to 0.02 µM.
The same measure for `CCCC[C@@H]1NC(=O)[C@H](CC(N)=O)NC(=O)[C@@H](C)NC(=O)[C@H](C)N(C)C(=O)[C@H](C(C)C)NC(=O)[C@H](Cc2ccc(-c3ccccc3)cc2)NC(=O)[C@H](CC(C)C)NC(=O)[C@H](Cc2c[nH]c3ccccc23)NC(=O)[C@H](CC(=O)O)NC(=O)[C@H](Cc2ccc(O)cc2)NC(=O)[C@H](Cc2ccccc2)NC(=O)CSC[C@@H](C(=O)N[C@@H](C)C(N)=O)NC(=O)[C@H]([C@@H](C)O)NC(=O)[C@H](C(C)C)NC1=O` [Compound 1778] ({CH2CO}-FYDWL[Bip]V[NMeA][dA]N[Nle]VTCA-NH2; thioether N-14): 0.07 µM; for `CC(C)C[C@@H]1NC(=O)[C@H](Cc2c[nH]c3ccccc23)NC(=O)[C@H](CC(=O)O)NC(=O)[C@H](Cc2ccc(O)cc2)NC(=O)[C@H](Cc2ccccc2)NC(=O)CSC[C@@H](C(=O)NCC(N)=O)NC(=O)[C@H]([C@@H](C)O)NC(=O)[C@H](C(C)C)NC(=O)[C@H](CC(C)C)NC(=O)[C@H](CC(N)=O)NC(=O)[C@@H](CC(C)C)NC(=O)[C@H](C)N(C)C(=O)[C@H](C(C)C)NC(=O)[C@H](Cc2ccc(-c3ccccc3)cc2)NC1=O` [Compound 1466] ({CH2CO}-FYDWL[Bip]V[NMeA][dL]NLVTCG-NH2; thioether N-14): 0.02 µM.
With `CC(C)C[C@@H]1NC(=O)[C@H](CC(N)=O)NC(=O)[C@@H](CC(C)C)NC(=O)[C@H](C)N(C)C(=O)[C@H](C(C)C)NC(=O)[C@H](Cc2ccc(-c3ccccc3)cc2)NC(=O)[C@H](CCN)NC(=O)[C@H](Cc2c[nH]c3ccccc23)NC(=O)[C@H](CC(=O)O)NC(=O)[C@H](Cc2ccc(O)cc2)NC(=O)[C@H](Cc2ccccc2)NC(=O)CSC[C@@H](C(=O)N[C@@H](C)C(N)=O)NC(=O)[C@H](CO)NC(=O)[C@H](C(C)C)NC1=O` [Compound 2025] ({CH2CO}-FYDW[Dab][Bip]V[NMeA][dL]NLVSCA-NH2; thioether N-14), the concentration for half-maximal inhibition (IC50) is 0.26 µM.
On to `CC(C)C[C@@H]1NC(=O)[C@H](CCCNC(=N)N)NC(=O)[C@@H](Cc2ccc(N)cc2)NC(=O)[C@H](C)N(C)C(=O)[C@H](CCCNC(=N)N)NC(=O)[C@H](Cc2ccc(-c3ccccc3)cc2)NC(=O)[C@H](C(C)C)NC(=O)[C@H](Cc2c[nH]c3ccccc23)NC(=O)[C@H](CC(=O)O)NC(=O)[C@H](Cc2ccc(O)cc2)NC(=O)[C@H](Cc2ccccc2)NC(=O)CSC[C@@H](C(=O)N[C@@H](C)C(N)=O)NC(=O)[C@H]([C@@H](C)O)NC(=O)[C@H](C(C)C)NC1=O` [Compound 1087] ({CH2CO}-FYDWV[Bip]R[NMeA][dPhe(4-NH2)]RLVTCA-NH2; thioether N-14), for which the IC50 turned out to be 0.33 µM.
As for `CC[C@H](C)[C@@H]1NC(=O)[C@H](Cc2ccc(-c3ccccc3)cc2)NC(=O)[C@H](CC(C)C)NC(=O)[C@H](Cc2c[nH]c3ccccc23)NC(=O)[C@H](CC(=O)O)NC(=O)[C@H](Cc2ccc(C(=O)O)cc2)NC(=O)[C@H](Cc2ccc(OCC(=O)O)cc2)NC(=O)CSC[C@@H](C(N)=O)NC(=O)[C@H](CO)NC(=O)[C@H](C(C)C)NC(=O)[C@H](CC2CCCCC2)NC(=O)[C@H](CCN)NC(=O)[C@@H](CC(C)C)NC(=O)[C@H](C)N(C)C1=O` [Compound 1635] ({CH2CO}-Y(Carboxymethyl)[Phe(4-COOH)]DWL[Bip]I[NMeA][dL][Dab][Cha]VSC-NH2; thioether N-14), the 50% inhibitory concentration (IC50) turned out to be 0.01 µM.
In the case of `CC(C)C[C@@H]1NC(=O)[C@H](CCCN)NC(=O)[C@H](Cc2csc3ccccc23)NC(=O)[C@H](C)N(C)C(=O)[C@H](CCCNC(=N)N)NC(=O)[C@H](Cc2ccc(-c3ccccc3)cc2)NC(=O)[C@H](C(C)C)NC(=O)[C@H](Cc2c[nH]c3ccccc23)NC(=O)[C@H](CC(=O)O)NC(=O)[C@H](Cc2ccc(O)cc2)NC(=O)[C@H](Cc2ccccc2)NC(=O)CSC[C@@H](C(=O)N[C@@H](C)C(N)=O)NC(=O)[C@H]([C@@H](C)O)NC(=O)[C@H](C(C)C)NC1=O` [Compound 1120] ({CH2CO}-FYDWV[Bip]R[NMeA][Bta][Orn]LVTCA-NH2; thioether N-14), the IC50 is 0.27 µM.
The same measure for `CC(C)C[C@@H]1NC(=O)[C@H](CCN)NC(=O)[C@@H](CC(C)C)NC(=O)[C@H](C)N(C)C(=O)[C@H](CCCNC(=N)N)NC(=O)[C@H](Cc2ccc(-c3ccccc3)cc2)NC(=O)[C@H](C(C)C)NC(=O)[C@H](Cc2c[nH]c3ccccc23)NC(=O)[C@H](CC(=O)O)NC(=O)[C@H](Cc2ccc(O)cc2)NC(=O)[C@H](CC(N)=O)NC(=O)CSC[C@@H](C(=O)N[C@@H](C)C(N)=O)NC(=O)[C@H]([C@@H](C)O)NC(=O)[C@H](C(C)C)NC1=O` [Compound 1189] ({CH2CO}-NYDWV[Bip]R[NMeA][dL][Dab]LVTCA-NH2; thioether N-14): 0.03 µM; for `Cc1cccc(C[C@@H]2NC(=O)[C@H](CC(=O)O)NC(=O)[C@H](Cc3ccc(OCC(=O)O)cc3)NC(=O)[C@H](CN3CCOCC3)NC(=O)CSC[C@@H](C(=O)NC(CCN)C(N)=O)NC(=O)[C@H](CCCN)NC(=O)[C@H](C(C)C)NC(=O)[C@H](Cc3cccc(C)c3)NC(=O)[C@H](CCN)NC(=O)[C@@H](CC(C)C)NC(=O)[C@H](C)N(C)C(=O)[C@H](CCC(N)=O)NC(=O)[C@H](Cc3ccc(-c4ccccc4)cc3)NC(=O)[C@H](Cc3ccc(C(=O)O)cc3)NC2=O)c1` (stereo partly drawn) [Example 2298] ({CH2CO}-[Ala(morpholin-4-yl)]Y(Carboxymethyl)D[Phe(3-Me)][Phe(4-COOH)][Bip]Q[NMeA][dL][Dab][Phe(3-Me)]V[Orn]C[ξDab]-NH2; thioether N-14): 0.01 µM; for `CCC(C)[C@@H]1NC(=O)[C@H](Cc2ccc(-c3ccccc3)cc2)NC(=O)[C@H](C(C)C)NC(=O)[C@H](Cc2cccc(C)c2)NC(=O)[C@H](CC(=O)O)NC(=O)[C@H](Cc2ccc(OCC(=O)O)cc2)NC(=O)[C@H](CCCC[N+](C)(C)C)NC(=O)CSCC(C(=O)NCC(N)=O)NC(=O)[C@H](CO)NC(=O)[C@H](C(C)C)NC(=O)[C@H](CC(C)C)NC(=O)[C@H](CC(N)=O)NC(=O)[C@@H](CC(C)C)NC(=O)[C@H](C)N(C)C1=O` (stereo partly drawn) [Compound 2064] ({CH2CO}-[Lys(Me3)]Y(Carboxymethyl)D[Phe(3-Me)]V[Bip][Ile(3ξ)][NMeA][dL]NLVS[ξC]G-NH2; thioether N-14): 0.04 µM.
Take `CC[C@H](C)[C@@H]1NC(=O)[C@H](Cc2ccc(-c3ccccc3)cc2)NC(=O)[C@H](C(C)C)NC(=O)[C@H](Cc2c[nH]c3ccccc23)NC(=O)[C@H](CC(=O)O)NC(=O)[C@H](Cc2ccc(O)c([N+](=O)[O-])c2)NC(=O)[C@H](CN)NC(=O)CSC[C@@H](C(=O)N[C@@H](C)C(N)=O)NC(=O)[C@H]([C@@H](C)O)NC(=O)[C@H](C(C)C)NC(=O)[C@H](CC(C)C)NC(=O)[C@H](CCN)NC(=O)[C@@H](CC(C)C)NC(=O)[C@H](C)N(C)C1=O` [Compound 1409] ({CH2CO}-[Dap][Tyr(3-NO2)]DWV[Bip]I[NMeA][dL][Dab]LVTCA-NH2; thioether N-14): the half-maximal inhibitory concentration (IC50) worked out at 0.04 µM.
Take `CC(C)C[C@@H]1NC(=O)[C@H](Cc2c[nH]c3ccccc23)NC(=O)[C@H](CC(=O)O)NC(=O)[C@H](Cc2ccc(OCC(=O)O)cc2)NC(=O)[C@H](Cc2ccncc2)NC(=O)CSC[C@@H](C(=O)NCC(N)=O)NC(=O)[C@H](CO)NC(=O)[C@H](C(C)C)NC(=O)[C@H](CC(C)C)NC(=O)[C@H](CC(N)=O)NC(=O)[C@@H](CC(C)C)NC(=O)[C@H](C)N(C)C(=O)[C@H](C(C)C)NC(=O)[C@H](Cc2ccc(-c3ccccc3)cc2)NC1=O` [Compound 1551] ({CH2CO}-[4Pal]Y(Carboxymethyl)DWL[Bip]V[NMeA][dL]NLVSCG-NH2; thioether N-14): the concentration for half-maximal inhibition (IC50) was found to be 0.01 µM.
In the case of `CC(C)C[C@@H]1NC(=O)[C@H](CCCNC(=N)N)NC(=O)[C@@H](Cc2cccnc2)NC(=O)[C@H](C)N(C)C(=O)[C@H](CCCNC(=N)N)NC(=O)[C@H](Cc2ccc(-c3ccccc3)cc2)NC(=O)[C@H](C(C)C)NC(=O)[C@H](Cc2c[nH]c3ccccc23)NC(=O)[C@H](CC(=O)O)NC(=O)[C@H](Cc2ccc(O)cc2)NC(=O)[C@H](Cc2ccccc2)NC(=O)CSC[C@@H](C(=O)N[C@@H](C)C(N)=O)NC(=O)[C@H]([C@@H](C)O)NC(=O)[C@H](C(C)C)NC1=O` [Compound 1104] ({CH2CO}-FYDWV[Bip]R[NMeA][d3Pal]RLVTCA-NH2; thioether N-14), the 50% inhibitory concentration (IC50) worked out at 0.13 µM.
